Literature values as cited in patent publication US20090269400A1, “Nanoparticulate and Controlled Release Compositions Comprising a Cephalosporin” (ELAN PHARMA INTERNATIONAL LIMITED, priority 2005, published 2009).
Where two headings read alike, the source gives them in different places.

Conditions: stated in words in background/summary, no method given

Row | Structure (SMILES) | solubility in water | solubility in water (listed as cefpodoxime proxetil)
1 | COCC1=C(C(=O)OC(C)OC(=O)OC(C)C)N2C(=O)[C@@H](NC(=O)/C(=N\OC)c3csc(N)n3)[C@H]2SC1 (mixture of isomers) [Cefpodoxime proxetil, (RS)-1(isopropoxycarbonyloxy)ethyl (+)-(6R,7R)-7-[2-(2-amino-4-thiazolyl)-2-{(Z)methoxyimino}acetamido]-3-methoxymethyl-8-oxo-5-thia-1-azabicyclo [4.2.0]oct-2-ene-2-carboxylate] | practically insoluble in water | only slightly soluble in water
2 | COCC1=C(C(=O)O)N2C(=O)[C@@H](NC(=O)/C(=N\OC)c3csc(N)n3)[C@H]2SC1 [cefpodoxime] | practically insoluble in water | –
